Measured values from patent publication US12544442B2, “Biocompatible nanomagnetic discs and methods of use thereof” (priority 2018, dated 2026).

How the values were obtained:
HL60 cells [1] = test: Rat HL60/estradiol tumor model with magnetic field exposure, cancer cell count in blood; assay type: in vivo
Method: (§1) Efficacy studies of BMND were conducted in a rat model. Rats were injected with HL60 cells and estradiol to induce the generation of tumors on various organs. This is a well-established rat model of human tumors. The positive control comprised six healthy rats with no tumor induction and no drug treatment. The negative control comprised six tumor bearing rats with no drug treatment. The test groups included six rats in each group, all induced for tumors, and treated with either paclitaxel (gold standard chemotherapeutic; 40 mg/KG body weight), anti-HL60-BMND at 100 μg/kG body weight, or anti-HL60-BMND at 200 μg/KG body weight.
(§2) Procedure: Rats were inoculated with estradiol-17ß (1.7 mg/pellet) before an injection of 1×10^7 HL60 cells intravenously into tail vein. If tumor observed at various organs, the tumor size could be measured in three dimensions with calipers every 2 days starting at day 7. If tumor was not observed/not palpable, then tumor induction was confirmed by histopathology. […] After confirmation of tumor induction by histopathology, treatment was started.
The rats were exposed to magnetic field according to the following protocol. Rats strapped to the VFVF magnetizer as described above. The device was switched on to apply magnetic force of known intensity, frequency and duration to cause “flip/flop” action in the biocompatible magnetic nanodiscs. This application of oscillating field force is expected to cause the Nanomagnetic particles bound to the cell to “flip/flop.” This action is expected to damage the cell wall leading to apoptosis. The following parameters were recorded: Treatment Time—60 minutes; Magnetic field intensity—90 G (Gauss); Frequency—20 Hz. Waveform—sinusoidal
Cancer cell count in blood was ascertained for the treatment groups.

HL60 cells [2] = test: Rat HL60/estradiol tumor model with magnetic field exposure, tumor histopathology (H&E); assay type: in vivo; conditions: paclitaxel treated group, 40 mg/kg body weight; H&E 400×
Method: as §1, §2
The rats were exposed to magnetic field according to the following protocol. […] The following parameters were recorded: Treatment Time—60 minutes; Magnetic field intensity—90 G (Gauss); Frequency—20 Hz. […]
Confirmation of tumor was assessed as follows: Formalin fixed tissue of tumor area samples from various organs were received. […]

[3] = Paclitaxel 40 mg/kg body weight
[4] = STD group (Paclitaxel 40 mg/kg), baseline

## CC(=O)O[C@H]1C(=O)[C@@]2(C)[C@H]([C@H](OC(=O)c3ccccc3)[C@]3(O)C[C@H](OC(=O)[C@H](O)[C@@H](NC(=O)c4ccccc4)c4ccccc4)C(C)=C1C3(C)C)[C@]1(OC(C)=O)CO[C@@H]1C[C@@H]2O [Paclitaxel]
HL60 cells [1]; [3]
  Apoptotic cancer cells present per ml in the blood, After treatment 144 hrs: 5.20 × 10^3 per ml in the blood
  Viable cancer cells present per ml of blood, After treatment 144 hrs: 5.47 × 10^3 per ml of blood
HL60 cells [1]; [4]
  Apoptotic cancer cells present per ml in the blood, Before treatment: 852 per ml in the blood
  Viable cancer cells present per ml of blood, Before treatment: 16.08 × 10^3 per ml of blood
HL60 cells [2]
  tumor histopathology (FIG. 8C): neoplastic cells (small arrow) with stromal reaction, mitotic figures (arrow head), inflammation and necrosis (large arrow)
